In patent US7820379B2, “Process for high throughput screening of CpG-based immuno-agonist/antagonist” (Coley Pharmaceutical GmbH, priority 2000, dated 2010):

What was measured:
[1] = system: monocyte-derived dendritic cells (MDDC); test: Cytokine production by monocyte-derived dendritic cells (ELISA); assay type: cell-based, human; details: purified MDDC; ODN 2 μM, LPS 100 ng/ml
Protocol: Human dendritic cells (DC) have been claimed to be responsive to CpG-DNA. […] The converse was true for stimulation of monocyte-derived dendritic cells (MDDC) (FIG. 8 and unpublished data). […] IL-8 and TNF concentration was determined by enzyme-linked immunosorbent assay (ELISA). The CD123+DC response was DNA- and CpG-motif restricted. […] Due to this segregated response we analyzed TLR expression.

human B cells = test: Human B cell proliferation by 3H-thymidine uptake; assay type: cell-based; details: purified human B cells, day two; E. coli DNA 50 μg/ml, ODN 2 μM
From the text: Bacterial DNA has been described as a mitogen for both murine and human B cells. Although LPS is also mitogenic for murine B cells, it is generally accepted that LPS is not a mitogen for human B cells. […] B cell proliferation was monitored at day two by ^3H-thymidine uptake.

Sequence	response of MDDC (IL-8, TNF) [1]	B cell proliferation (3H-thymidine uptake) (human B cells)
TCGTCGTTTTGTCGTTTTGTCGTT [ODN 2006]	not	proliferate
TGCTGCTTTTGTGCTTTTGTGCTT (listed as DNA, chemistry not fully specified) [ODN 2006-GC]	–	not
